From patent publication US9737535B2, “Methods for treating cancer using TOR kinase inhibitor combination therapy comprising administering substituted pyrazino[2,3-b]pyrazines” (Signal Pharmaceuticals, LLC, priority 2014, dated 2017)

Legend:
Test in all cases: Anti-proliferation assay (ATPLite), Chalice synergy score
Assay type in all cases: cell-based
BT-20 = system: BT-20; design: scale not given here; settings: Compound 1 in combination with the named second active agent, 72 h, mean of n = 3 experiments in triplicate
Text: (§1) Cells were thawed from a liquid nitrogen preserved state.
(§2) The calculation for synergy score is provided below.
(§3) If T≧V0:100*[1−(T−V0)/(V−V0)]

HCC-1187 = system: HCC-1187; design: scale not given here; settings: Compound 1 in combination with the named second active agent, 72 h, mean of n = 3 experiments in triplicate
Text: as §1, §2, §3

HCC-1500 = system: HCC-1500; design: scale not given here; settings: Compound 1 in combination with the named second active agent, 72 h, mean of n = 3 experiments in triplicate
Text: as §1, §2, §3

BT-474 = settings: Compound 1 in combination with the named second active agent, 72 h, mean of n = 3 experiments in triplicate
Text: as §1, §2, §3

BT-549 = settings: Compound 1 in combination with the named second active agent, 72 h, mean of n = 3 experiments in triplicate
Text: as §1, §2, §3

HCC-1428 = settings: Compound 1 in combination with the named second active agent, 72 h, mean of n = 3 experiments in triplicate
Text: as §1, §2, §3

HCC-1806 = settings: Compound 1 in combination with the named second active agent, 72 h, mean of n = 3 experiments in triplicate
Text: as §1, §2, §3

HCC-1937 = settings: Compound 1 in combination with the named second active agent, 72 h, mean of n = 3 experiments in triplicate
Text: as §1, §2, §3

HCC70 = settings: Compound 1 in combination with second active agent; HCC-70; mean self-cross + 2σ threshold 3.45
Text: as §1, §2, §3

Hs-578-T = settings: Compound 1 in combination with second active agent, mean self-cross + 2σ threshold 4.09
Text: as §1, §2, §3

MCF7 = settings: Compound 1 in combination with second active agent, mean self-cross + 2σ threshold 3.07
Text: as §1, §2, §3

MDA-MB-157 = settings: Compound 1 in combination with second active agent, mean self-cross + 2σ threshold 4.68
Text: as §1, §2, §3

MDA-MB-231 = settings: Compound 1 in combination with second active agent, mean self-cross + 2σ threshold 2.61
Text: as §1, §2, §3

MDA-MB-436 = settings: Compound 1 in combination with second active agent, mean self-cross + 2σ threshold 1.91
Text: as §1, §2, §3

MDA-MB-468 = settings: Compound 1 in combination with second active agent, mean self-cross + 2σ threshold 4.66
Text: as §1, §2, §3

SMILES	Synergy score (BT-20)	Synergy score (HCC-1187)	Synergy score (HCC-1500)	Synergy score (BT-474)	Synergy score (BT-549)	Synergy score (HCC-1428)	Synergy score (HCC-1806)	Synergy score (HCC-1937)	Synergy score (HCC70)	Synergy score (Hs-578-T)	Synergy score (MCF7)	Synergy score (MDA-MB-157)	Synergy score (MDA-MB-231)	Synergy score (MDA-MB-436)	Synergy score (MDA-MB-468)
O=C(NOC[C@H](O)CO)c1ccc(F)c(F)c1Nc1ccc(I)cc1F [PD0325901]	6.34	7.89	3.58	1.50	1.62	4.69	3.78	3.54	14.70	3.88	4.62	8.05	9.62	4.20	5.84
O=C(NC[C@H](O)CO)c1ccncc1Nc1ccc(I)cc1F [AS703026]	6.08	8.22	4.24	2.61	1.73	6.26	4.71	2.41	13.70	6.43	2.90	6.66	10.90	2.25	5.71
CN(C)CCCn1cc(C2=C(c3c[nH]c4ccccc34)C(=O)NC2=O)c2ccccc21 [GF 109203X]	1.04	4.47	3.41	0.47	1.73	0.47	0.43	3.03	4.47	2.35	0.35	6.19	2.28	2.60	10.60
COc1c(C)cnc(Cn2cnc3c(Cl)nc(N)nc32)c1C [BIIB021]	3.71	0.45	1.11	2.83	0.12	4.02	1.01	1.44	9.58	1.19	0.15	3.94	1.22	0.33	5.46
O=C(O)c1ccc2c(c1)nc(Nc1cccc(Cl)c1)c1ccncc12 [CX-4945]	6.09	7.53	2.93	4.91	3.41	3.28	4.19	7.92	10.60	5.97	2.26	4.55	2.30	1.70	6.73
NC1(c2ccc(-c3nc4ccn5c(=O)[nH]nc5c4cc3-c3ccccc3)cc2)CCC1 [MK-2206]	13.10	10.60	2.02	8.24	9.17	4.09	7.33	11.40	13.30	12.60	12.10	9.00	3.39	5.55	10.80
C[C@]12CC[C@@H]3c4ccc(O)cc4C[C@@H](CCCCCCCCC[S+]([O-])CCCC(F)(F)C(F)(F)F)[C@H]3[C@@H]1CC[C@@H]2O (stereo partly drawn) [Fulvestrant]	1.39	2.16	5.15	1.37	1.25	1.09	1.30	1.98	1.50	2.10	2.45	0.42	0.77	0.74	0.41
CCc1cc(Nc2nccc(-c3c(-c4ccc(OC)c(C(=O)Nc5c(F)cccc5F)c4)nc4ccccn34)n2)c(OC)cc1N1CCC(N2CCN(S(C)(=O)=O)CC2)CC1 [GSK1904529A]	1.07	1.68	1.63	1.09	0.81	0.16	1.00	1.86	2.15	0.97	2.77	0.82	0.09	1.22	2.44
NC(=O)Nc1cc(-c2cccc(F)c2)sc1C(=O)N[C@H]1CCCNC1 [AZD7762]	3.92	1.65	3.02	1.21	0.39	2.58	0.32	4.44	4.61	8.16	0.08	3.09	3.66	0.93	0.94
C[C@]1(c2nc3c(C(N)=O)cccc3[nH]2)CCCN1 [ABT-888]	0.33	1.28	1.13	0.09	0.35	0.09	0.56	0.35	1.10	0.42	0.25	0.90	0.22	0.32	0.18
C[C@@]1(C(=O)Nc2ccc(F)nc2)CCCN1c1nc(Nc2cc(C3CC3)n[nH]2)c2cccn2n1 [BMS-754807]	2.08	9.68	3.99	1.30	2.14	4.09	3.04	0.64	2.08	3.32	5.31	9.46	2.50	2.00	2.25
CC(C)C[C@H](NC(=O)CNC(=O)c1cc(Cl)ccc1Cl)B1OC(=O)C(CC(=O)O)(CC(=O)O)O1 [MLN9708]	3.67	1.79	2.26	0.75	4.47	2.59	4.31	3.84	2.16	1.68	0.39	2.91	2.27	2.77	3.00
Cc1ccc(S(=O)(=O)/C=C/C#N)cc1 [Bay 11-7082]	0.00	0.51	0.52	0.93	1.16	1.53	1.01	1.23	1.13	1.51	0.02	3.65	0.61	1.24	1.89
CC[C@@]1(O)C(=O)OCc2c1cc1n(c2=O)Cc2cc3cc(O)ccc3nc2-1 [10-Hydroxycamptothecin]	6.15	6.49	4.43	1.20	4.11	4.13	3.88	12.40	6.31	1.70	3.80	10.30	8.55	3.62	7.86
NC(=O)[C@@H](CCC(F)(F)F)N(Cc1ccc(-c2ncon2)cc1F)S(=O)(=O)c1ccc(Cl)cc1 [BMS-708163]	0.20	3.06	0.34	0.19	0.34	0.26	0.89	0.96	1.24	1.36	0.16	0.63	1.45	0.86	0.98
